Assay results: PMC8589421, “Impact of Type II LRRK2 inhibitors on signaling and mitophagy” (Biochemical Journal, 2021)

What was measured:
[1] = system: phosphorylation of Rab12 (Ser105); assay: Rab12 phospho-immunoblot in wild-type MEFs; format: cell-based, mouse
Procedure: Wild-type and homozygous LRRK2 [R1441C] (Jax, stock number: 009346), LRRK2[G2019S] Taconic, (model 13940) and LRRK2 [A2016T] (Jax, stock number: 021828)[7] knock-in MEF cells were isolated from littermate-matched mouse embryos on a C57BL/6J background at day E12.5 as described previously. MEFs were grown in Dulbecco's modified Eagle medium (DMEM GIBCO, #11960-085) containing 10% (by vol) fetal bovine serum (FBS), 2 mM L-glutamine, 100 U/ml penicillin, and […] streptomycin supplemented with non-essential amino acids and 1 mM sodium pyruvate. Human embryonic kidney 293 (HEK293) (#ATCC CRL-1573) and HeLa (#ATCC CCL-2) cells were purchased from American Tissue Culture Collection (ATCC) and cultured in DMEM containing 10% (by vol) FBS, 2 mM L-glutamine, 100 U/ml penicillin, and […] streptomycin. All cells were grown at 37°C, 5% (by vol) CO2 in a humidified atmosphere and regularly tested for mycoplasma contamination.
Inhibitors were dissolved in dimethyl sulfoxide (DMSO) (Sigma, #D2650). The inhibitors were diluted 1000× into cell medium. The equivalent volume of DMSO was added to the minus inhibitor controls. Experiments were performed in six-well plates, 10 cm dishes or 15 cm dishes depending on the amount of cell extract required.
Cells were lysed in an ice-cold lysis buffer containing 50 mM Tris–HCl, pH 7.4, 1% (by vol) Triton X-100, 10% (by vol) glycerol, 150 mM NaCl, 1 mM sodium orthovanadate, 50 mM NaF, 10 mM 2-glycerophosphate, 5 mM sodium pyrophosphate, 1 µg/ml microcystin-LR, and cOmplete EDTA-free protease inhibitor cocktail (Roche, #11836170001). Lysates were incubated on ice for 30 min and clarified by centrifugation at 20 800×g at 4°C for 20 min. Supernatants were quantified by Bradford assay (Bio-Rad Protein Assay Dye Reagent Concentrate #5000006) and samples prepared in 1× lithium dodecyl sulfate sample buffer final concentration (NuPage LDS Sample buffer 4× Invitrogen, #NP0008). When not deployed immediately, lysates were snap-frozen in liquid nitrogen and stored at −80°C until use.
Cell extracts were mixed with a quarter of a volume of NuPage LDS Sample buffer 4× Invitrogen and heated at 95°C for 5 min. […] At the end of electrophoresis, proteins were electrophoretically transferred onto the nitrocellulose membrane (GE Healthcare, Amersham Protran Supported 0.45 µm NC) at 100 V for 90 min on ice in the transfer buffer (48 mM Tris–HCl and 39 mM glycine supplemented with 20% methanol). Transferred membrane was blocked with 5% (w/v) skim milk powder dissolved in TBS-T [20 mM Tris–HCl, pH 7.5, 150 mM NaCl and 0.1% (v/v) Tween 20] at room temperature for 1 h. […]

[2] = system: basal mitophagy, LRRK2[G2019S] MEFs; assay: mito-QC basal mitophagy in LRRK2[G2019S] knock-in primary MEFs; format: cell-based, mouse; details: 24 h, 30–300 nM GZD-824, GSK3357679A 100 nM positive control
Procedure: To assess mitophagy, wild type, G2019S knock in, and LRRK2 knock out primary mouse embryonic fibroblasts (MEFs) were derived, from time-mated pregnant females at E12.5 as previously described. Briefly, cells were plated on glass coverslips and incubated with DMEM (Gibco, 11960-044) supplemented with 10% FBS, 2 mM L-Glutamine (Gibco, 2503-081), 1% non-essential amino acids (Gibco, 11140-035), 1% Antibiotics (Penicillin/Streptomycin 100 U/ml penicillin and 100 µg/ml streptomycin; Gibco), and 150 µM β-Mercaptoethanol (Gibco, 21985-023) at 37°C under a humidified 5% CO2 atmosphere. […] GSK3357679A 100 nM (Ding et al., in prep) was used as a positive control. At the end of the treatment, MEFs were briefly washed twice in DPBS (Gibco, 14190-094), and fixed in 3.7% Paraformaldehyde pH 7.00 (Sigma, P6148), 200 mM HEPES, for 20 min. Cells were then washed two times with DMEM, 10 mM HEPES, and then incubated for 10 min with DMEM, 10 mM HEPES. […] Images were acquired using a Nikon Eclipse Ti-S fluorescence microscope with a 63× objective. Images were analyzed using the mito-QC counter as previously described. Experiments were performed in 3–4 independent experiments and data was analyzed with a one-way ANOVA followed by a Dunnett's multiple comparison test using the GraphPad Prism software (version 8.4.3 (686)).

Cc1ccc(C(=O)Nc2ccc(CN3CCN(C)CC3)c(C(F)(F)F)c2)cc1C#Cc1cnc2[nH]ncc2c1 [GZD-824]
Rab12 phosphorylation level after treatment ([1]; 1 μM, 2 h): almost background levels | Rab12 phosphorylation over 24 h time course ([1]; 1 μM, 24 h): remained suppressed | time to 50% reduction of Rab12 phosphorylation ([1]; 1 μM, Figure 2C): ~10 min | IC50 ([1]; Mus musculus, 2 h, Figure 2A, read-out: IC50 inhibition of Rab12 phosphorylation): ~300 nM | stimulation of basal mitophagy [2]: ~2 fold
